Key:
[1] = biological target: SRSF protein kinase 1 (Homo sapiens) (UniProt Q96SB4); assay: Percentage SRPK1 activity remaining in the presence of 0.01uM inhibitor
[2] = biological target: Mitogen-activated protein kinase 1 (Homo sapiens) (UniProt P28482); assay: Percentage ERK2 activity remaining in the presence of 0.01uM inhibitor
[3] = biological target: RAC-beta serine/threonine-protein kinase (Homo sapiens) (UniProt P31751); assay: Percentage PKBbeta activity remaining in the presence of 25uM inhibitor
[4] = biological target: T1, Aurora kinase C (Homo sapiens) (UniProt Q9UQB9); assay: Percentage Aurora C activity remaining in the presence of 25uM inhibitor
T1 sequence (whole entry): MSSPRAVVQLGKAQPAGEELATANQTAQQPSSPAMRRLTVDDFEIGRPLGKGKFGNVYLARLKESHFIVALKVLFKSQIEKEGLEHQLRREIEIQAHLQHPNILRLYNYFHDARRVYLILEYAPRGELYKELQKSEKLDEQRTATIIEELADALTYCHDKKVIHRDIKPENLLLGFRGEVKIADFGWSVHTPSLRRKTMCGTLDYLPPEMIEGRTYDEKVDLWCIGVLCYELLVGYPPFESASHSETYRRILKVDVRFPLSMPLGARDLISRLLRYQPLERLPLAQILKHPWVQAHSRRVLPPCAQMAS

[5] = biological target: T2, Mitogen-activated protein kinase 15 (Homo sapiens) (UniProt Q8TD08); assay: Percentage ERK8 activity remaining in the presence of 25uM inhibitor
T2 sequence (whole entry): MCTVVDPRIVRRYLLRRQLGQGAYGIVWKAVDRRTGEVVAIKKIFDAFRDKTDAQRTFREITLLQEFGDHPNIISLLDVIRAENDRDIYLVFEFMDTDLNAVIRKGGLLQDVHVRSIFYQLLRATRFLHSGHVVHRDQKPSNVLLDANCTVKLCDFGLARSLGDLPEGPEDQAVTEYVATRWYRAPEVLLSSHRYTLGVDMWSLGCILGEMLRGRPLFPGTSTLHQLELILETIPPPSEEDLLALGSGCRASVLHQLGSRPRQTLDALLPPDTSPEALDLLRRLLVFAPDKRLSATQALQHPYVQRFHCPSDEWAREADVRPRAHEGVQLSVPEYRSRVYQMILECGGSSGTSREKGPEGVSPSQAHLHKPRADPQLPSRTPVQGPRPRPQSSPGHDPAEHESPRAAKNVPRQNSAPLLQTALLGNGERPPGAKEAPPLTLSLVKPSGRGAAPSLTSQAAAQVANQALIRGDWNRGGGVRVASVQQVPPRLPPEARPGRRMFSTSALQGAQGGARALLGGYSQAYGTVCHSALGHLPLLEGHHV

[6] = biological target: Mitogen-activated protein kinase 11 (Homo sapiens) (UniProt Q15759); assay: Percentage p38beta activity remaining in the presence of 25uM inhibitor
[7] = biological target: Ribosomal protein S6 kinase alpha-3 (Homo sapiens) (UniProt P51812); assay: Percentage RSK2 activity remaining in the presence of 25uM inhibitor
Ribosomal protein S6 kinase alpha-3 (Homo sapiens), sequence (P51812 whole entry): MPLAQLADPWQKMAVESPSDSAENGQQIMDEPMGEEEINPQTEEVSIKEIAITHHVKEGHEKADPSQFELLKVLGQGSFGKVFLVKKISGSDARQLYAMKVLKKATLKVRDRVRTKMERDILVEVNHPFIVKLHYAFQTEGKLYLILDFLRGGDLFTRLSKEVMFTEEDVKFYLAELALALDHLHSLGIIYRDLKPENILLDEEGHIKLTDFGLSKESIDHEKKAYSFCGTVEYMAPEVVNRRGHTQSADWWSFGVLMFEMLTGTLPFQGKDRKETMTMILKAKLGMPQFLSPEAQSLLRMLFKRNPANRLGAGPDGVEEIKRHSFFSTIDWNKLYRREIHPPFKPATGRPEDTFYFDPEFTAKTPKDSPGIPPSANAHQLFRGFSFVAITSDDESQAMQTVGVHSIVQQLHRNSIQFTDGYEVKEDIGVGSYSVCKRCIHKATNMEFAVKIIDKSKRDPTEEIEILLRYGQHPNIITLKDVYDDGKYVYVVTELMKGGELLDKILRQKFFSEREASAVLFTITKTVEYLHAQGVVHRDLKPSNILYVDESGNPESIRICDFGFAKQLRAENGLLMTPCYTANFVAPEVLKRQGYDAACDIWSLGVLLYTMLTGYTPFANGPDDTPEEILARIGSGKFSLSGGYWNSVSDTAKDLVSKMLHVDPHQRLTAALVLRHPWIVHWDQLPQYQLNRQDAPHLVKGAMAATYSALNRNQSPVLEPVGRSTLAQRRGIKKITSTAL

[8] = biological target: Serine/threonine-protein kinase PAK 4 (Homo sapiens, UniProt O96013); assay: Percentage PAK4 activity remaining in the presence of 25uM inhibitor
Serine/threonine-protein kinase PAK 4, sequence (O96013 whole entry, looked up): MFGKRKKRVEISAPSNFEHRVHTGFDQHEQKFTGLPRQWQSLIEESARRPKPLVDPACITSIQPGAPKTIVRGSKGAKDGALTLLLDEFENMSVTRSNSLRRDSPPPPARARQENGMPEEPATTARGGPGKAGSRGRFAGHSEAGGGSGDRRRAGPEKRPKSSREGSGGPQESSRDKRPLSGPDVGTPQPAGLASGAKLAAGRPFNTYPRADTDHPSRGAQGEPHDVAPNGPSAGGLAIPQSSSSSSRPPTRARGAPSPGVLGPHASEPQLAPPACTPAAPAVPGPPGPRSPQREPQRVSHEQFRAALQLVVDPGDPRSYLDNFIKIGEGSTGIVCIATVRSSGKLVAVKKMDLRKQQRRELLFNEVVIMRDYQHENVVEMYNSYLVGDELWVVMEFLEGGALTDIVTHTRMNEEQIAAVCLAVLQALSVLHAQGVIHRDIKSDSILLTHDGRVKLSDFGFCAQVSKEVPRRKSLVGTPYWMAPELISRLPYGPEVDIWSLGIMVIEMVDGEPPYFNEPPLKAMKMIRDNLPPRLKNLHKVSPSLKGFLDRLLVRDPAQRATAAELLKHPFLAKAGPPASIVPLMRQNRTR

[9] = biological target: Serine/threonine-protein kinase pim-3 (Homo sapiens, UniProt Q86V86); assay: Percentage PIM3 activity remaining in the presence of 25uM inhibitor; conditions: filed as antagonist
[10] = biological target: Proto-oncogene tyrosine-protein kinase Src (Gallus gallus) (UniProt P00523); assay: Percentage Src activity remaining in the presence of 25uM inhibitor
[11] = biological target: RAC-alpha serine/threonine-protein kinase (Homo sapiens) (UniProt P31749); assay: Percentage PKBalpha activity remaining in the presence of 25uM inhibitor
[12] = biological target: Calcium/calmodulin-dependent protein kinase kinase 2 (Homo sapiens) (UniProt Q96RR4); assay: Percentage CaMKKbeta activity remaining in the presence of 25uM inhibitor
[13] = biological target: Glycogen synthase kinase-3 beta (Homo sapiens, UniProt P49841); assay: Percentage GSK3-beta activity remaining in the presence of 25uM inhibitor
Glycogen synthase kinase-3 beta, sequence (P49841 whole entry, looked up): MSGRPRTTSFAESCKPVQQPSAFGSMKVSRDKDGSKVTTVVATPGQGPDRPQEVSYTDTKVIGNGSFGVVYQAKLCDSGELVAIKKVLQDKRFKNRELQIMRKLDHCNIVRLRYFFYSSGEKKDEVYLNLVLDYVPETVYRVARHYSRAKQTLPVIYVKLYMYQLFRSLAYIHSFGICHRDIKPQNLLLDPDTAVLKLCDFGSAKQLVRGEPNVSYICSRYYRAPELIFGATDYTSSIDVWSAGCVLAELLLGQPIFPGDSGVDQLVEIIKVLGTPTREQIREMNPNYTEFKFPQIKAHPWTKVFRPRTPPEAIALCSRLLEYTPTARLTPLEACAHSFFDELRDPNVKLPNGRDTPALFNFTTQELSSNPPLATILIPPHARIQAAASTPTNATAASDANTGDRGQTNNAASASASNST

[14] = biological target: Ribosomal protein S6 kinase alpha-5 (Homo sapiens) (UniProt O75582); assay: Percentage MSK1 activity remaining in the presence of 25uM inhibitor
Ribosomal protein S6 kinase alpha-5 (Homo sapiens), sequence (O75582 whole entry, looked up): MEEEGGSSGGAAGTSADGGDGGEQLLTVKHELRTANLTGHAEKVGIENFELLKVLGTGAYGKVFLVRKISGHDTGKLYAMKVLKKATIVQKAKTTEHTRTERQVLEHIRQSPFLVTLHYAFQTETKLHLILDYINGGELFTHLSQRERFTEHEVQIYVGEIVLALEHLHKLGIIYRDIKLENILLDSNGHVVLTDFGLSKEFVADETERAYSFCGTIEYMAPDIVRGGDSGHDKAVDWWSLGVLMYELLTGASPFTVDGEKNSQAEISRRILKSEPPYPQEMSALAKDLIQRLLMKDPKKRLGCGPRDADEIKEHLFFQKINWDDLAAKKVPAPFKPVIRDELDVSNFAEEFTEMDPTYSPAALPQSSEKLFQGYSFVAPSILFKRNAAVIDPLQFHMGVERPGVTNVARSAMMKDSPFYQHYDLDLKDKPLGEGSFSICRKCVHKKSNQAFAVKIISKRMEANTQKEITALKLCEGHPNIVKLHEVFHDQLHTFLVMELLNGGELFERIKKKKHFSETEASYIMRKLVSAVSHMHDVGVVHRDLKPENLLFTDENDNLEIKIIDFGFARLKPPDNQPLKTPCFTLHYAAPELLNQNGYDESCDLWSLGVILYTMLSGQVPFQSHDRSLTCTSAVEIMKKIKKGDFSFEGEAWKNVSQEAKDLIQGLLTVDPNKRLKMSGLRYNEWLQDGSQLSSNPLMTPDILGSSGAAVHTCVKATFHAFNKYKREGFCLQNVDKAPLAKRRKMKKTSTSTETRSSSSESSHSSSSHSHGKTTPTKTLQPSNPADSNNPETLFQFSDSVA

[15] = biological target: Dual specificity mitogen-activated protein kinase kinase 1 (Homo sapiens) (UniProt Q02750); assay: Percentage MKK1 activity remaining in the presence of 25uM inhibitor
Dual specificity mitogen-activated protein kinase kinase 1 (Homo sapiens), sequence (Q02750 whole entry): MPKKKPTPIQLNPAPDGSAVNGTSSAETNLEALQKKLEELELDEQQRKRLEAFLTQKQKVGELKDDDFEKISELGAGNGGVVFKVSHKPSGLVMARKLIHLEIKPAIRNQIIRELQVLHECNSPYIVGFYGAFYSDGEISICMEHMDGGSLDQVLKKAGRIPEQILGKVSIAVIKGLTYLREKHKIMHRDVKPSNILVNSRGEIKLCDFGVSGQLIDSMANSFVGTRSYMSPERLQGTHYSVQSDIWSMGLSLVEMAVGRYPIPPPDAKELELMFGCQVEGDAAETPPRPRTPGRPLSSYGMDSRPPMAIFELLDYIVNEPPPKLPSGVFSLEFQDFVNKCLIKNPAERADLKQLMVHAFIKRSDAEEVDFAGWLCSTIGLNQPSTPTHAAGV

[16] = biological target: T3, Dual specificity tyrosine-phosphorylation-regulated kinase 2 (Homo sapiens) (UniProt Q92630); assay: Percentage DYRK2 activity remaining in the presence of 25uM inhibitor
T3 sequence (whole entry): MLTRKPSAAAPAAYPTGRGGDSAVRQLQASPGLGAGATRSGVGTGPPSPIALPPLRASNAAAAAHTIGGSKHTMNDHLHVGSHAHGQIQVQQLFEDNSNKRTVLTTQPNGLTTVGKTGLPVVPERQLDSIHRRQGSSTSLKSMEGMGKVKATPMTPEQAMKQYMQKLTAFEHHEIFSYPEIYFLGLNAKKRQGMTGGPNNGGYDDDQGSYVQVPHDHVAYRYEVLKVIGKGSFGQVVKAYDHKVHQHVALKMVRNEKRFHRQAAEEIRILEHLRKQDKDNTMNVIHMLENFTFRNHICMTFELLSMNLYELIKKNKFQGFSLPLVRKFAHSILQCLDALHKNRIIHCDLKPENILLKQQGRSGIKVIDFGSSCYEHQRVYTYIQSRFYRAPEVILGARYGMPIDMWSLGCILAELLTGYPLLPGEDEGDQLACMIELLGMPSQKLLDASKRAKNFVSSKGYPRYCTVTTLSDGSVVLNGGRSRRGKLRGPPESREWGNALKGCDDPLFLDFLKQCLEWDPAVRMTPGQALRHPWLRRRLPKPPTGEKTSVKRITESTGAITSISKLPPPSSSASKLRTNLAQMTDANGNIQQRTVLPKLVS

[17] = biological target: Mitogen-activated protein kinase 10 (Homo sapiens) (UniProt P53779); assay: Percentage JNK3 activity remaining in the presence of 25uM inhibitor
Mitogen-activated protein kinase 10 (Homo sapiens), sequence (P53779 whole entry): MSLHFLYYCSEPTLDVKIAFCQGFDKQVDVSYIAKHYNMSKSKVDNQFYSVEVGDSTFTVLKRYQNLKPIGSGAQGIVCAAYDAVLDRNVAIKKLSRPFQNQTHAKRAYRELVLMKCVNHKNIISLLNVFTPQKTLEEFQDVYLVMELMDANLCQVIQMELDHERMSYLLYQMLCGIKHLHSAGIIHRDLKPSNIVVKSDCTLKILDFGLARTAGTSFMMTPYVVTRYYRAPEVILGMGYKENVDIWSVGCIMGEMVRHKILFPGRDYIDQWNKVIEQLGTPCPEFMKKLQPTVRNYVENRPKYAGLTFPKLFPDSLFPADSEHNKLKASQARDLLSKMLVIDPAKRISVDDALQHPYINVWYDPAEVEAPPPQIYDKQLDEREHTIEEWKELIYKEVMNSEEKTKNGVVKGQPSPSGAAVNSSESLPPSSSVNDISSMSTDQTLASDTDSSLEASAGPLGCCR

[18] = biological target: Serine/threonine-protein kinase PAK 6 (Homo sapiens) (UniProt Q9NQU5); assay: Percentage PAK6 activity remaining in the presence of 25uM inhibitor
Serine/threonine-protein kinase PAK 6 (Homo sapiens), sequence (Q9NQU5 whole entry, looked up): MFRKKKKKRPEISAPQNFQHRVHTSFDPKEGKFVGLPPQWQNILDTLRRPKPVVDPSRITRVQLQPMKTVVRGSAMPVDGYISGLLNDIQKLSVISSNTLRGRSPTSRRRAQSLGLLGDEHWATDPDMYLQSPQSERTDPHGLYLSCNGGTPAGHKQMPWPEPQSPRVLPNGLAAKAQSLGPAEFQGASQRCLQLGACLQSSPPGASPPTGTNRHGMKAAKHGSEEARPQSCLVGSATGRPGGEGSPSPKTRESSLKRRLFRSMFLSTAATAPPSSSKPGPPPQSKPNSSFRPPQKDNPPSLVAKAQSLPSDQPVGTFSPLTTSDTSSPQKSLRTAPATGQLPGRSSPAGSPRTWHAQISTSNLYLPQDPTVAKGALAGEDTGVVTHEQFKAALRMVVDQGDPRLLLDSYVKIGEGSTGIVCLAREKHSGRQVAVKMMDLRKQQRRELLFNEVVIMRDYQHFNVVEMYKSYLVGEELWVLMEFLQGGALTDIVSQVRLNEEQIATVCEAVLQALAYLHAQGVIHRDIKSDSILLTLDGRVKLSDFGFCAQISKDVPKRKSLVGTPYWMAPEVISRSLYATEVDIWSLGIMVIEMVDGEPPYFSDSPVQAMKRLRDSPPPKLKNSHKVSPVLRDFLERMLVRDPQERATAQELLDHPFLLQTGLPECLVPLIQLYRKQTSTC

[19] = biological target: Casein kinase II (Homo sapiens) (UniProt P67870+P68400+P19784); assay: Percentage CK2 activity remaining in the presence of 25uM inhibitor; type: protein-complex assay

Mitogen-activated protein kinase 1 (Homo sapiens), sequence (P28482 whole entry): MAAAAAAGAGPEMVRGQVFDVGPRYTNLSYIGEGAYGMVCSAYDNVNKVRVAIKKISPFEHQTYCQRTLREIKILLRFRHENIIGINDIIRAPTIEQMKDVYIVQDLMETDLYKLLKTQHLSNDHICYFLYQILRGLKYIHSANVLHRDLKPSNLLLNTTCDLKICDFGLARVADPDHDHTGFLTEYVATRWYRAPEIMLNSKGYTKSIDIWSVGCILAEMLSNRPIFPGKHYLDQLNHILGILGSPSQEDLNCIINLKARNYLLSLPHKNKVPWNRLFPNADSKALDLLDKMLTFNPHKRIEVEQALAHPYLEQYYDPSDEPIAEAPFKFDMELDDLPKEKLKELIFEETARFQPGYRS

| Compound | Activity [1] | Activity [2] | Activity [3] | Activity [4] | Activity [6] | Activity [7] | Activity [8] | Activity [9] | Activity [10] | Activity [11] | Activity [12] | Activity [13] | Activity [15] | Activity [16] | Activity [17] | Activity [18] | Activity [19] | further results |
| --- | --- | --- | --- | --- | --- | --- | --- | --- | --- | --- | --- | --- | --- | --- | --- | --- | --- | --- |
| O=C(NCCCNc1nc(Nc2cccc(NC(=O)N3CCCC3)c2)ncc1I)c1cccs1 | 99% | 88% | – | – | – | – | – | – | – | – | – | – | – | – | – | – | – | – |
| COc1cc(OC)c(/C=C2/C(=O)Nc3ccccc32)c(OC)c1 | – | – | 90% | 94% | 97% | 89% | 84% | 41% | 70% | 94% | 86% | 74% | 86% | 99% | 93% | 76% | 97% | Activity [5]: 68%; Activity [14]: 88% |
| Cc1n[nH]c2ccc(-c3cncc(OC[C@@H](N)Cc4c[nH]c5ccccc45)c3)cc12 | 92% | 78% | – | – | – | – | – | – | – | – | – | – | – | – | – | – | – | – |
| NCCNS(=O)(=O)c1ccc(Cl)c2ccncc12 | – | – | 89% | 95% | 101% | 63% | 88% | 28% | 92% | 54% | 86% | 75% | 76% | 76% | 103% | 78% | 65% | Activity ([5]; filed as antagonist): 29%; Activity ([14]; filed as antagonist): 42% |
